Data published in paper PMC3479105, “K-134, a Phosphodiesterase 3 Inhibitor, Prevents Brain Damage by Inhibiting Thrombus Formation in a Rat Cerebral Infarction Model” (PLoS ONE, 2012).
Read-outs that look alike come from different tables or passages of the source. Marks after values point to notes of the source that are not given here.

Experiments:
PDE4 = test system: PDE4; parameters: method as in PMID 10644042; conditions: read-out: IC50 toward PDE4; cited from earlier work
[1] = Plasma concentration in rat arteriovenous shunt model; assay type: in vivo; conditions: SD, n = 6
From the text: (§1) Immediately after a single oral administration of the test compound, SD rats were anesthetized by subcutaneous injection of 1.2 g/kg of urethane (n = 12). Ninety minutes after oral administration of a single dose of K-134 or cilostazol, one end of a polyethylene catheter (size 3, 24 cm; Hibiki, Tokyo, Japan) filled with physiological saline was inserted into the left jugular vein, with the other end of the catheter inserted into the right common carotid artery to create a loop. The end of the catheter was removed from the jugular vein 4 h after creation of the loop. A thrombus was then regarded to have been formed when blood no longer ran from the catheter. […] The serum concentrations of K-134 and cilostazol were determined by high-performance liquid chromatography (HPLC).

[2] = Electron spin resonance (ESR) radical scavenging; conditions: ESR experiments, data not shown
From the text: In the photothrombotic cerebral infarction model, photoactivation of rose bengal by illumination with green light results in reactive oxygen intermediates (predominantly singlet oxygen and superoxide). […] Therefore, we concluded that the observed inhibitory effects of K-134 on photothrombosis in this model are relevant to its antiplatelet activity but not radical scavenging activity.

PDE5 = test system: PDE5; parameters: method as in PMID 10644042; conditions: read-out: IC50 toward PDE5; cited from earlier work
[3] = test system: photothrombotic cerebral infarction model; assay: Infarct volume 24 h after photothrombotic MCA occlusion; assay type: in vivo, rat; conditions: for infarct volume: 24 h after MCA occlusion, control 131.4±18.9 mm^3; for bleeding in the cerebrum observed macroscopically: rats treated with K-134 and cilostazol in photothrombotic stroke model
Experimental: (§2) Brain infarction was produced by photothrombotic MCA occlusion essentially as reported previously. K-134 and cilostazol were administered to SD rats 2 h and 3 h before irradiation for MCA occlusion, respectively (n = 12), because K-134 reached plasma peak levels at 1–2 h, and cilostazol and its active metabolites (OPC-13015 and OPC-13213) reached at >3 h (Table S1) after oral administration in conscious male SD rats under fed conditions. Rats were anesthetized by intraperitoneal administration of 50 mg/kg of sodium pentobarbital (Kyoritsu Pharmaceutical Co., Ltd., Nara, Japan). Then, a polyethylene catheter for administration of rose bengal was placed in the left femoral vein. Rats were mounted on a brain stereotactic apparatus, and body temperature was maintained at 37°C with a heating pad. The left temporalis muscle was partially cut after incision of the scalp, and craniotomy was performed using a dental drill under an operating microscope. The fiber of a xenon lamp (Model L-4887; Hamamatsu Photonics Co., Ltd., Shizuoka, Japan) was placed on the MCA for irradiation (wavelength: 540 nm, 800000 lux), and the probe of the laser Doppler flow meter (ALF21R; Advance Co., Ltd., Tokyo, Japan) was placed on the MCA distal to the fiber. After 2 min of irradiation, rose bengal (25 mg/kg/mL; Sigma Aldrich Co., MO, USA) was injected for the next 2 min. The MCA was continuously irradiated for 8 min. Blood flow was measured for 18 min from the commencement of irradiation. The MCA occlusion time was determined from blood flow data. When blood flow continued beyond the observation period, the occlusion time was regarded as 16 min. After surgery, the incision site was closed with sutures, and rats were returned to their cages.
Twenty-four hours after MCA occlusion, rats were sacrificed by an overdose of pentobarbital and cutting an abdominal vein. The brain was immediately removed, cooled with cold spray (Pip Co., Ltd., Osaka, Japan), and cut into six slices (2 mm thick) using a slicer (RBSC-02; Neuro Science Inc., Tokyo, Japan) and razor (FA-10; Feather Razor, Co., Ltd., Osaka, Japan). The cutting base point (0 mm) was set at the position of bregma, and brains were cut at −2, −4, 0, +2, +4, +6, +8 mm from the base point. The brain slices were stained with 1% (w/v) 2,3,5-triphenyl-2H-tetrazolium chloride (TTC; Tokyo Chemical Industry Co., Ltd., Tokyo, Japan) in saline solution at 37°C for 20 min. The stained slices were photographed with a digital camera (CAMEDIA E-10; Olympus Co., Ltd., Tokyo, Japan). Whole brain areas and infarcted areas were quantified by image analysis (Win ROOF; Mitani Co., Ltd., Tokyo, Japan), and infarct volume were calculated with the trapezoidal rule.

[4] = test system: photothrombotic middle cerebral artery (MCA) occlusion; assay: Photothrombotic MCA occlusion time in rat stroke model; assay type: in vivo; conditions: SD rats, n = 12, control 4.1±0.4 min
Experimental: as §2

rat platelet aggregation = assay: Rat platelet aggregation in vitro (PRP, aggregometer); assay type: cell-based
Experimental: Platelet-rich plasma (PRP) was prepared by centrifugation (900 rpm, 15 min, at room temperature) of blood (05PR-22 centrifuge with a 03 rotor; Hitachi, Ltd., Tokyo, Japan), and the platelet count was adjusted to 5×10^5/µL with platelet-poor plasma prepared by centrifugation (3000 rpm, 10 min, at room temperature). PRP was incubated with antiplatelet agents at 37°C for 3 min and stimulated with collagen (final concentration, 15 µg/mL; MC Medical Inc., Tokyo, Japan) or adenosine diphosphate (ADP) (final concentration, 7.5 µM; MC Medical Inc.) (n = 5). Platelet aggregation was quantified by measuring the area under the curve (AUC) during the 5-min period after addition of trigger using a light transmittance aggregometer (PAM-8C; Mebanix Co., Ltd., Tokyo, Japan).

PDE2 = test system: PDE2; parameters: method as in PMID 10644042; conditions: read-out: IC50 toward PDE2; cited from earlier work
PDE3A = test system: PDE3A; parameters: method as in PMID 10644042; conditions: read-out: IC50 toward PDE3A; cited from earlier work
[5] = test system: arteriovenous shunt thrombus formation; assay: Arteriovenous shunt thrombosis model; assay type: in vivo, rat; conditions: for Occluded/Total: n = 12, control 11/12; for Occlusion (%): control 92; for ED50: Rattus norvegicus, rats, single oral dose 90 min before creation of the arteriovenous shunt, read-out: ED50, incidence of occlusive shunt thrombi
From the text: as §1

PDE3B = test system: PDE3B; parameters: method as in PMID 10644042; conditions: read-out: IC50 toward PDE3B; cited from earlier work
[6] = ADP 7.5 µM, n = 5, read-out: IC50, rat platelet aggregation induced by ADP
[7] = collagen 15 µg/mL, n = 5, read-out: IC50, rat platelet aggregation induced by collagen

Structure (SMILES)	IC50 (PDE4) [µM]	scavenging activities against singlet oxygen and superoxide anion radical [2]	IC50 (PDE5) [µM]	bleeding in the cerebrum observed macroscopically [3]	IC50 (rat platelet aggregation; [6]) [µM]	IC50 (rat platelet aggregation; [7]) [µM]	IC50 (PDE2) [µM]	IC50 (PDE3A) [µM]	Inhibition (%) of arteriovenous shunt thrombus formation ([5]; 10 mg/kg single oral dose) [%]	Occluded/Total ([5]; 10 mg/kg single oral dose)	Occlusion (%) ([5]; 10 mg/kg single oral dose)	Inhibition (%) of arteriovenous shunt thrombus formation ([5]; 30 mg/kg single oral dose) [%]	Occluded/Total ([5]; 30 mg/kg single oral dose)	Occlusion (%) ([5]; 30 mg/kg single oral dose)	ED50 [5] [mg/kg]	IC50 (PDE3B) [µM]	also measured
O=C1CCc2cc(OCCCCc3nnnn3C3CCCCC3)ccc2N1 [cilostazol]	88	did not show scavenging activities	4.4	No bleeding	83	42	45.2	0.2	37	7/12	58	64	4/12*	33	18	0.38	Cmax ([1]; 30 mg/kg oral): 2080 ± 280 nM; infarct volume ([3]; 300 mg/kg oral, not significant): 95.8±14.8 mm^3; MCA occlusion time ([4]; 300 mg/kg oral preadministration, not statistically significant): 6.9 ± 1.3 min; Inhibition (%) of arteriovenous shunt thrombus formation ([5]; 100 mg/kg single oral dose): 73%; Occluded/Total ([5]; 100 mg/kg single oral dose): 3/12**; Occlusion (%) ([5]; 100 mg/kg single oral dose): 25%
O=C(NCCCOc1ccc2[nH]c(=O)ccc2c1)N(C1CC1)[C@@H]1CCCC[C@H]1O [K-134]	> 300	did not show scavenging activities	12.1	No bleeding	3.2	2.5	> 300	0.1	64	4/12*	33	64	4/12*	33	11	0.28	Cmax ([1]; 10 mg/kg oral): 430 ± 80 nM; infarct volume ([3]; 10 mg/kg oral, not significant): 92.0±14.7 mm^3; infarct volume ([3]; 30 mg/kg oral, significant): 62.1±12.9 mm^3; MCA occlusion time ([4]; 10 mg/kg oral preadministration, mean ± SEM): 7.9 ± 1.1 min; MCA occlusion time ([4]; 30 mg/kg oral preadministration, mean ± SEM): 9.1 ± 1.6 min; Inhibition (%) of arteriovenous shunt thrombus formation ([5]; 3 mg/kg single oral dose): 18%; Occluded/Total ([5]; 3 mg/kg single oral dose): 9/12; Occlusion (%) ([5]; 3 mg/kg single oral dose): 75%
